{"source": "PubChem BioAssay (NCI)", "experiment_in_all_cases": "inhibition of tumour cell growth, NCI panel, 48 h", "key": {"[1]": {"test_system": "RXF 393 renal"}, "[2]": {"test_system": "SK-MEL-28 melanoma"}, "[3]": {"test_system": "IGROV1 ovarian"}, "[4]": {"test_system": "HCT-15 colon"}, "[5]": {"test_system": "HOP-92 NSCLC"}, "[6]": {"test_system": "HCC-2998 colon"}, "[7]": {"test_system": "BT-549 breast"}, "[8]": {"test_system": "DU-145 prostate"}, "[9]": {"test_system": "TK-10 renal"}, "[10]": {"test_system": "NCI-H460 lung"}, "[11]": {"test_system": "U251 CNS"}, "[12]": {"test_system": "HL-60(TB) leukemia"}, "[13]": {"test_system": "A549 NSCLC"}, "[14]": {"test_system": "OVCAR-8 ovarian"}, "[15]": {"test_system": "UACC-62 melanoma"}, "[16]": {"test_system": "EKVX NSCLC"}, "[17]": {"test_system": "T-47D breast"}, "[18]": {"test_system": "OVCAR-3 ovarian"}, "[19]": {"test_system": "HOP-62 NSCLC"}, "[20]": {"test_system": "MOLT-4 leukemia"}, "[21]": {"test_system": "SK-MEL-5 melanoma"}, "[22]": {"test_system": "SF-539 CNS"}, "[23]": {"test_system": "SK-OV-3 ovarian"}, "[24]": {"test_system": "SW-620 colon"}, "[25]": {"test_system": "HCT-116 colon"}, "[26]": {"test_system": "COLO 205 colon"}, "[27]": {"test_system": "MALME-3M melanoma"}, "[28]": {"test_system": "SR leukemia"}, "[29]": {"test_system": "NCI-H23 lung"}, "[30]": {"test_system": "CAKI-1 renal"}, "[31]": {"test_system": "CCRF-CEM leukemia"}, "[32]": {"test_system": "NCI/ADR-RES ovarian"}, "[33]": {"test_system": "M14 melanoma"}, "[34]": {"test_system": "OVCAR-5 ovarian"}, "[35]": {"test_system": "MDA-MB-435"}, "[36]": {"test_system": "LOX IMVI melanoma"}, "[37]": {"test_system": "UO-31 renal"}, "[38]": {"test_system": "SN12C renal"}, "[39]": {"test_system": "PC-3 prostate"}, "[40]": {"test_system": "SF-268 CNS"}, "[41]": {"test_system": "HS 578T breast"}, "[42]": {"test_system": "SF-295 CNS"}, "[43]": {"test_system": "MDA-N"}, "[44]": {"test_system": "MDA-MB-231 breast"}, "[45]": {"test_system": "SNB-75 CNS"}, "[46]": {"test_system": "A498 renal"}, "[47]": {"test_system": "MCF7 breast"}, "[48]": {"test_system": "HT29 colon"}, "[49]": {"test_system": "SK-MEL-2 melanoma"}, "[50]": {"test_system": "OVCAR-4 ovarian"}, "[51]": {"test_system": "UACC-257 melanoma"}, "[52]": {"test_system": "K-562 leukemia"}}, "note": "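These data come from cells grown in 96-well plates and exposed to compound for 48 hours at five concentrations. TGI: concentration producing complete growth inhibition.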"}
{"smiles": "CCN1CCC(O)(/C=C/c2ccccc2C)C(C(=O)/C=C/c2ccccc2C)C1", "note": "(configuration not stated)", "values": [{"measurement": "TGI", "setting": "[1]", "result": 3.67, "unit": "µM"}, {"measurement": "TGI", "setting": "[2]", "result": 6.71, "unit": "µM"}, {"measurement": "TGI", "setting": "[3]", "result": 14.5, "unit": "µM"}, {"measurement": "TGI", "setting": "[4]", "result": 3.8, "unit": "µM"}, {"measurement": "TGI", "setting": "[5]", "result": 3.38, "unit": "µM"}, {"measurement": "TGI", "setting": "[6]", "result": 2.61, "unit": "µM"}, {"measurement": "TGI", "setting": "[7]", "result": 6.44, "unit": "µM"}, {"measurement": "TGI", "setting": "[8]", "result": 4.05, "unit": "µM"}, {"measurement": "TGI", "setting": "[9]", "result": 10.1, "unit": "µM"}, {"measurement": "TGI", "setting": "[10]", "result": 3.18, "unit": "µM"}, {"measurement": "TGI", "setting": "[11]", "result": 7.25, "unit": "µM"}, {"measurement": "TGI", "setting": "[12]", "result": 4.85, "unit": "µM"}, {"measurement": "TGI", "setting": "[13]", "result": 12.8, "unit": "µM"}, {"measurement": "TGI", "setting": "[14]", "result": 7.85, "unit": "µM"}, {"measurement": "TGI", "setting": "[15]", "result": 10.7, "unit": "µM"}, {"measurement": "TGI", "setting": "[16]", "result": 16.8, "unit": "µM"}, {"measurement": "TGI", "setting": "[17]", "result": 4.32, "unit": "µM"}, {"measurement": "TGI", "setting": "[18]", "result": 4.77, "unit": "µM"}, {"measurement": "TGI", "setting": "[19]", "result": 3.74, "unit": "µM"}, {"measurement": "TGI", "setting": "[20]", "result": 6.12, "unit": "µM"}, {"measurement": "TGI", "setting": "[21]", "result": 2.9, "unit": "µM"}, {"measurement": "TGI", "setting": "[22]", "result": 4.28, "unit": "µM"}, {"measurement": "TGI", "setting": "[23]", "result": 21, "unit": "µM"}, {"measurement": "TGI", "setting": "[24]", "result": 10.1, "unit": "µM"}, {"measurement": "TGI", "setting": "[25]", "result": 3.38, "unit": "µM"}, {"measurement": "TGI", "setting": "[26]", "result": 3.13, "unit": "µM"}, {"measurement": "TGI", "setting": "[27]", "result": 16.3, "unit": "µM"}, {"measurement": "TGI", "setting": "[28]", "result": "> 100", "unit": "µM"}, {"measurement": "TGI", "setting": "[29]", "result": 4.11, "unit": "µM"}, {"measurement": "TGI", "setting": "[30]", "result": 3.21, "unit": "µM"}, {"measurement": "TGI", "setting": "[31]", "result": 4.85, "unit": "µM"}, {"measurement": "TGI", "setting": "[32]", "result": 12.7, "unit": "µM"}, {"measurement": "TGI", "setting": "[33]", "result": 4.45, "unit": "µM"}, {"measurement": "TGI", "setting": "[34]", "result": 3.99, "unit": "µM"}, {"measurement": "TGI", "setting": "[35]", "result": 7.04, "unit": "µM"}, {"measurement": "TGI", "setting": "[36]", "result": 3.38, "unit": "µM"}, {"measurement": "TGI", "setting": "[37]", "result": 3, "unit": "µM"}, {"measurement": "TGI", "setting": "[38]", "result": 4.6, "unit": "µM"}, {"measurement": "TGI", "setting": "[39]", "result": 4.05, "unit": "µM"}, {"measurement": "TGI", "setting": "[40]", "result": 14, "unit": "µM"}, {"measurement": "TGI", "setting": "[41]", "result": 16.2, "unit": "µM"}, {"measurement": "TGI", "setting": "[42]", "result": 6.68, "unit": "µM"}, {"measurement": "TGI", "setting": "[43]", "result": 8.88, "unit": "µM"}, {"measurement": "TGI", "setting": "[44]", "result": 7.11, "unit": "µM"}, {"measurement": "TGI", "setting": "[45]", "result": 16.6, "unit": "µM"}, {"measurement": "TGI", "setting": "[46]", "result": 4.55, "unit": "µM"}, {"measurement": "TGI", "setting": "[47]", "result": 7.37, "unit": "µM"}, {"measurement": "TGI", "setting": "[48]", "result": 6.7, "unit": "µM"}, {"measurement": "TGI", "setting": "[49]", "result": 5.57, "unit": "µM"}, {"measurement": "TGI", "setting": "[50]", "result": 12.5, "unit": "µM"}, {"measurement": "TGI", "setting": "[51]", "result": 9.31, "unit": "µM"}, {"measurement": "TGI", "setting": "[52]", "result": "> 100", "unit": "µM"}]}
